Experimental data taken from ChEMBL document CHEMBL3044945, “Synthesis of 1,3,5-trisubstituted pyrazoline nucleus containing compounds and screening for antimicrobial activity” (2012).

Tests used:
Type in all cases: functional
[1] = test system: Penicillium chrysogenum; assay: Antifungal activity against Penicillium chrysogenum MTCC 161 at 10 ug/ml after 48 hr by cup-plate method; conditions: MTCC 161, 48 h, read-out: DIZ
[2] = test system: Aspergillus niger; assay: Antifungal activity against Aspergillus niger MTCC 2546 at 10 ug/ml after 48 hr by cup-plate method; conditions: MTCC 2546, 48 h, read-out: DIZ
[3] = test system: Bacillus subtilis; assay: Antibacterial activity against Bacillus subtilis MTCC 441 at 10 ug/ml after 48 hr by cup-plate method; conditions: MTCC 441, 48 h, read-out: DIZ
[4] = test system: Staphylococcus aureus; assay: Antibacterial activity against Staphylococcus aureus MTCC 1430 at 10 ug/ml after 48 hr by cup-plate method; conditions: MTCC 1430, 48 h, read-out: DIZ
[5] = test system: Bacillus pumilus; assay: Antibacterial activity against Bacillus pumilus MTCC 1456 at 10 ug/ml after 48 hr by cup-plate method; conditions: MTCC 1456, 48 h, read-out: DIZ
[6] = test system: Pseudomonas fluorescens; assay: Antibacterial activity against Pseudomonas fluorescens MTCC 2421 at 10 ug/ml after 48 hr by cup-plate method; conditions: MTCC 2421, 48 h, read-out: DIZ
[7] = test system: Micrococcus luteus; assay: Antibacterial activity against Micrococcus luteus MTCC 1538 at 10 ug/ml after 48 hr by cup-plate method; conditions: MTCC 1538, 48 h, read-out: DIZ
[8] = test system: Escherichia coli; assay: Antibacterial activity against Escherichia coli MTCC 1573 at 10 ug/ml after 48 hr by cup-plate method; conditions: MTCC 1573, 48 h, read-out: DIZ
[9] = test system: Pseudomonas aeruginosa; assay: Antibacterial activity against Pseudomonas aeruginosa MTCC 424 at 10 ug/ml after 48 hr by cup-plate method; conditions: MTCC 424, 48 h, read-out: DIZ

SMILES	zone of inhibition at 10 µg/mL [1]	zone of inhibition at 10 µg/mL [2]	zone of inhibition at 10 µg/mL [3]	zone of inhibition at 10 µg/mL [4]	zone of inhibition at 10 µg/mL [5]	zone of inhibition at 10 µg/mL [6]	zone of inhibition at 10 µg/mL [7]	zone of inhibition at 10 µg/mL [8]	zone of inhibition at 10 µg/mL [9]
OC(Cn1cncn1)(Cn1cncn1)c1ccc(F)cc1F [FLUCONAZOLE]	25 mm	24 mm	–	–	–	–	–	–	–
CCn1cc(C(=O)O)c(=O)c2cc(F)c(N3CCNCC3)cc21 [NORFLOXACIN]	–	–	25 mm	28 mm	27 mm	27 mm	32 mm	27 mm	24 mm
